These results are taken from ChEMBL document CHEMBL2321867, “Synthesis and structure-activity relationships of 2-hydrazinyladenosine derivatives as A(2A) adenosine receptor ligands” (Bioorg Med Chem, 2013).

The target of experiment [1] is Adenosine receptor A2a (Rattus norvegicus, UniProt P30543). The experiment is described as follows: Displacement of [3H]CGS21680 from adenosine A2A receptor in rat brain striatal membrane after 60 mins by liquid scintillation counting analysis. The class given is cell membranes. In general terms: Displacement assays read how much labelled ligand stays bound in the presence of the test substance.

Experiment [2] deals with Adenosine receptor A2a (Rattus norvegicus) (UniProt P30543). The experiment is described as follows: Displacement of [3H]CGS21680 from adenosine A2A receptor in rat brain striatal membrane at 1 uM after 60 mins by liquid scintillation counting analysis. The class given is cell membranes.
Experiment [3] concerns the target T1, Adenosine receptor A2b (Homo sapiens) (UniProt P29275).
T1 sequence (whole entry): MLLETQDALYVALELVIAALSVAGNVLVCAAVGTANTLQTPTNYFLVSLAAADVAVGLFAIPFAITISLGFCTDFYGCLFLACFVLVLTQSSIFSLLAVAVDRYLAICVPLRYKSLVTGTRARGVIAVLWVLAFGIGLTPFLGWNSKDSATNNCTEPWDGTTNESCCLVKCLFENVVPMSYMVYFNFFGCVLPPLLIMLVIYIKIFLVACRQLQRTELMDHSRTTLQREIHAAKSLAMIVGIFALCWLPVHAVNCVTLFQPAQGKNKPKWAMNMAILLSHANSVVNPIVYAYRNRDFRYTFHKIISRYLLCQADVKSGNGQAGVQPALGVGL
The experiment is described as follows: Displacement of [3H]PSB-603 from human recombinant adenosine A2B receptor expressed in CHO cells at 10 uM after 75 mins by liquid scintillation counting analysis. It counts as cell-based.

Experiment [4] addresses T2, Adenosine receptor A1 (Homo sapiens, UniProt P30542).
T2 sequence (P30542 whole entry): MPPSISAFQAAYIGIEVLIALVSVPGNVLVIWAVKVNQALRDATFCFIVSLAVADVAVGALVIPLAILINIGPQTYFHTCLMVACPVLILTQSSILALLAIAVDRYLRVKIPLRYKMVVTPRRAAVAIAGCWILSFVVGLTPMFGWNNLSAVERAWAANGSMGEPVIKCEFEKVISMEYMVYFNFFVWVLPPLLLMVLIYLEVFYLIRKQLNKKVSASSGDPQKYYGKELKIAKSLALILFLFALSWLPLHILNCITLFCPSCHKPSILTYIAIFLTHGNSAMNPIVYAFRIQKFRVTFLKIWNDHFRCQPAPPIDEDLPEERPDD

Experiment [5] deals with T2, Adenosine receptor A1. In words: Displacement of [3H]CCPA from human recombinant adenosine A1 receptor expressed in CHO cells 90 mins by liquid scintillation counting analysis. The class given is cell-based.
The target in experiment [6] is T3, Adenosine receptor A3 (Homo sapiens, UniProt P0DMS8).
T3 sequence (P0DMS8 whole entry): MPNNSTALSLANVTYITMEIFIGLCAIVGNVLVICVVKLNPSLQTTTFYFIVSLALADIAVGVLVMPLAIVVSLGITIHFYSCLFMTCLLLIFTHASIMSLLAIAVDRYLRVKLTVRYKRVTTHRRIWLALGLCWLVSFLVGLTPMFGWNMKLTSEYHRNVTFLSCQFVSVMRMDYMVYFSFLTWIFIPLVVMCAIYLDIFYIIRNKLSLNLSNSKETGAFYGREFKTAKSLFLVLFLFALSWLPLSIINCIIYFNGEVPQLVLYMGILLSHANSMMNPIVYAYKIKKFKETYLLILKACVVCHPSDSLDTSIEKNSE
In words: Displacement of [3H]NECA from human recombinant adenosine A3 receptor expressed in CHO cells after 180 mins by liquid scintillation counting analysis. The class given is cell-based.

The target in experiment [7] is T3, Adenosine receptor A3. The experiment is described as follows: Displacement of [3H]NECA from human recombinant adenosine A3 receptor.
The target of experiment [8] is T4, Adenosine receptor A1 (Rattus norvegicus, UniProt P25099).
T4 sequence (P25099 whole entry): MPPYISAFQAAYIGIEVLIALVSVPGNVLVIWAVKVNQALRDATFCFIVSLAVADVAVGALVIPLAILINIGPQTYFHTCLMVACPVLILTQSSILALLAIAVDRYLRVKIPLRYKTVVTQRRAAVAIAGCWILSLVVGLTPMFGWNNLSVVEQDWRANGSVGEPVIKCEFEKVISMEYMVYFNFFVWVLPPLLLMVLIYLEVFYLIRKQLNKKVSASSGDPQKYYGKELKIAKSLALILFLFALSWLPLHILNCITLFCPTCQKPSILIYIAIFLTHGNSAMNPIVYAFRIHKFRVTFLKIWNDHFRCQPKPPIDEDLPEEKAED
In words: Displacement of [3H]CCPA from adenosine A1 receptor in rat brain cortical membrane after 90 mins by liquid scintillation counting analysis. The class given is cell membranes.

For experiment [9], the target named is Adenosine receptor A2a (Homo sapiens, UniProt P29274). The experiment is described as follows: Agonist activity at human recombinant adenosine A2A receptor expressed in CHO cells assessed as [3H]cAMP accumulation after 15 mins by liquid scintillation counting. The class given is functional, cell-based. For orientation: Changes in cAMP serve as a functional read-out for many G protein-coupled receptors.

In experiment [10] the target is T5, Adenosine receptor A3 (Homo sapiens) (UniProt P0DMS8).
T5 sequence (whole entry): T3 sequence (P0DMS8 whole entry)
In words: Displacement of [3H]NECA from human recombinant adenosine A3 receptor expressed in CHO cells at 1 uM after 180 mins by liquid scintillation counting analysis. It counts as cell-based.

The target in experiment [11] is T6, Adenosine receptor A1 (Rattus norvegicus) (UniProt P25099).
T6 sequence (whole entry): T4 sequence (P25099 whole entry)
In words: Displacement of [3H]CCPA from adenosine A1 receptor in rat brain cortical membrane at 1 uM after 90 mins by liquid scintillation counting analysis. The class given is cell membranes.

Chain of Adenosine receptor A2a (Rattus norvegicus, UniProt P30543) (P30543 whole entry): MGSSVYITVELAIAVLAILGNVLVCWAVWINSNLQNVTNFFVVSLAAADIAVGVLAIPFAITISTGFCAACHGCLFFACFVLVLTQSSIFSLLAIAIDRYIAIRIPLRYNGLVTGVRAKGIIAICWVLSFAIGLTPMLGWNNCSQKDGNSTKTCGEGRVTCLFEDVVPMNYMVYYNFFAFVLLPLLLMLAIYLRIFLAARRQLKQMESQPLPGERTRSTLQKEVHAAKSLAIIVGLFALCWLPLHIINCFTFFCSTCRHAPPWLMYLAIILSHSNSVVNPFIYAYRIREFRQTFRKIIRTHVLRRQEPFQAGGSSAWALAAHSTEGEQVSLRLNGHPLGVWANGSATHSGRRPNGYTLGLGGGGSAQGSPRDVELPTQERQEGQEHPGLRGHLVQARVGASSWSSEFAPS
Chain of Adenosine receptor A2a (Rattus norvegicus) (P30543 whole entry): as above
Chain of Adenosine receptor A2a (Homo sapiens, UniProt P29274) (P29274 whole entry): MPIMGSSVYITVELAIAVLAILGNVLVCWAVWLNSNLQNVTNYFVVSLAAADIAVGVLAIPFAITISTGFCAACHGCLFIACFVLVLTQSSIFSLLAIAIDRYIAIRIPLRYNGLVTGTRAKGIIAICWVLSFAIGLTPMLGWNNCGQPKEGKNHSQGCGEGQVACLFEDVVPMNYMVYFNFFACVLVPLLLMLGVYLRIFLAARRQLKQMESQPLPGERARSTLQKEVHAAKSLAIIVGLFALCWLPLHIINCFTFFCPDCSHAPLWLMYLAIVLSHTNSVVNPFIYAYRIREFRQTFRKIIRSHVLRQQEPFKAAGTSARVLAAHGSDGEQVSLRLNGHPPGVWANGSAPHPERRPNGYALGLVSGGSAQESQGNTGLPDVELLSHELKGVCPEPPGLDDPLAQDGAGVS

As for `CN(NC(=O)Nc1ccccc1)c1nc(N)c2ncn([C@@H]3O[C@H](CO)[C@@H](O)[C@H]3O)c2n1`, the inhibitory constant (Ki) (in general, the equilibrium dissociation constant of an inhibitor or competing ligand from its target) on Adenosine receptor A2a [1] was greater than 1000 nM. In [2], the inhibition (usually the change of the read-out against control, counted positive when it falls) is 11%.
At Adenosine receptor A2a [1], `CN(/N=C/[C@H](O)[C@H](O)[C@@H](O)[C@@H](O)CO)c1nc(N)c2ncn([C@@H]3O[C@H](CO)[C@@H](O)[C@H]3O)c2n1` gave a Ki greater than 1000 nM. Besides, the inhibition in experiment [2] came to 2%.
Take `Nc1nc(N/N=C/C2CCCCC2)nc2c1ncn2[C@@H]1O[C@H](CO)[C@@H](O)[C@H]1O` [BINODENOSON]: the inhibition in experiment [3] was determined as 17%. Also, the inhibitory constant (Ki) at Adenosine receptor A1 [4] came out at 48000 nM; on Adenosine receptor A1 [5] it was 169 nM; on Adenosine receptor A3 [6] it was 52.6 nM; on Adenosine receptor A3 [7] it was 903 nM; on Adenosine receptor A1 [8], 70.8 nM; at Adenosine receptor A2a [1], 25.5 nM.
On Adenosine receptor A2a [1], `CN(/N=C/[C@@H](O)[C@@H](O)[C@@H](O)CO)c1nc(N)c2ncn([C@@H]3O[C@H](CO)[C@@H](O)[C@H]3O)c2n1` came in with a Ki greater than 1000 nM. The same compound had an inhibition in experiment [2] of 7%.
For `CN(/N=C/[C@H](O)[C@@H](O)[C@@H](O)[C@H](O)CO)c1nc(N)c2ncn([C@@H]3O[C@H](CO)[C@@H](O)[C@H]3O)c2n1`, at Adenosine receptor A2a [1], the Ki is greater than 1000 nM. Further, the inhibition in experiment [2] amounted to 25%.
Take `Nc1nc(N/N=C/[C@@H](O)[C@H](O)[C@H](O)[C@@H](O)CO)nc2c1ncn2[C@@H]1O[C@H](CO)[C@@H](O)[C@H]1O`: on Adenosine receptor A2a [9], the EC50 (commonly the concentration giving half of the maximal effect) came out at 1440 nM. Further, the inhibitory constant (Ki) on Adenosine receptor A2a [1] came out at 329 nM.
As for `Nc1nc(N/N=C/[C@@H](O)[C@@H](O)[C@@H](O)CO)nc2c1ncn2[C@@H]1O[C@H](CO)[C@@H](O)[C@H]1O`, the Ki on Adenosine receptor A2a [1] is greater than 1000 nM. For the same compound, the inhibition in [2] is 33%.
As to `Nc1nc(N/N=C(\CO)[C@H](O)[C@@H](O)[C@@H](O)CO)nc2c1ncn2[C@@H]1O[C@H](CO)[C@@H](O)[C@H]1O`, the Ki at Adenosine receptor A2a [1] was greater than 1000 nM. In addition, the inhibition in experiment [2] came out at 34%.
For `Nc1nc(N/N=C/c2ccc(Cl)c(Cl)c2)nc2c1ncn2[C@@H]1O[C@H](CO)[C@@H](O)[C@H]1O`, at Adenosine receptor A2a [9], the EC50 was 1660 nM. On Adenosine receptor A2a [1], this compound returned a Ki of 24.4 nM.
For the compound `Nc1nc(N/N=C/[C@@H](O)[C@H](O)[C@@H](O)[C@@H](O)CO)nc2c1ncn2[C@@H]1O[C@H](CO)[C@@H](O)[C@H]1O`, the Ki at Adenosine receptor A2a [1] is greater than 1000 nM. In experiment [2], this compound displayed an inhibition of 42%.
In turn, `CN(/N=C(\CO)[C@H](O)[C@@H](O)[C@@H](O)CO)c1nc(N)c2ncn([C@@H]3O[C@H](CO)[C@@H](O)[C@H]3O)c2n1` registered a Ki on Adenosine receptor A2a [1] greater than 1000 nM. Moreover, the inhibition in experiment [2] turned out to be 25%.
For the compound `CN(NC(=S)Nc1ccccc1)c1nc(N)c2ncn([C@@H]3O[C@H](CO)[C@@H](O)[C@H]3O)c2n1`, the results for the inhibition in experiment [10], in experiment [11] and in experiment [2] were 36%, 1% and 16%, respectively. Besides, the Ki on Adenosine receptor A3 [6], on Adenosine receptor A1 [8] and at Adenosine receptor A2a [1] was greater than 1000 nM each time.
Compound `Nc1nc(N/N=C/[C@H](O)[C@H](O)[C@@H](O)[C@@H](O)CO)nc2c1ncn2[C@@H]1O[C@H](CO)[C@@H](O)[C@H]1O` displayed a Ki on Adenosine receptor A2a [1] greater than 1000 nM. This compound displayed an inhibition in [2] of 33%.
Consider `COc1ccc(/C=N/Nc2nc(N)c3ncn([C@@H]4O[C@H](CO)[C@@H](O)[C@H]4O)c3n2)cc1`, for which the Ki at Adenosine receptor A1 [5] came to 723 nM; at Adenosine receptor A2a [1] it was 12 nM.
`Nc1nc(N/N=C/c2ccc(Cl)cc2)nc2c1ncn2[C@@H]1O[C@H](CO)[C@@H](O)[C@H]1O` yielded an inhibition constant (Ki) on Adenosine receptor A2a [1] of 16.1 nM.
Consider `Nc1nc(N/N=C/c2ccc(Cl)cc2O)nc2c1ncn2[C@@H]1O[C@H](CO)[C@@H](O)[C@H]1O`, for which, on Adenosine receptor A2a [1], the Ki is 91.7 nM.
`CN(/N=C/[C@@H](O)[C@H](O)[C@@H](O)[C@@H](O)CO)c1nc(N)c2ncn([C@@H]3O[C@H](CO)[C@@H](O)[C@H]3O)c2n1` came in with a Ki on Adenosine receptor A2a [1] greater than 1000 nM. Moreover, in experiment [2], the inhibition came out at 31%.
